Patent US20260174875A1 (Novo Nordisk A/S, priority 2023, published 2026)
Like-named read-outs stand apart in the source and are kept apart here. Numbered stars: 1 amine (or outer) side, 2 acyl side, 3 side chain; on linkers, the order of the positions; unused ones are H or OH. Square brackets hold non-standard residues; d marks the D form. Side chains are listed from the residue outwards. * marks the point of attachment. C20 diacid = O=C(O)CCCCCCCCCCCCCCCCCCC(=O)*; C18 diacid = O=C(O)CCCCCCCCCCCCCCCCC(=O)*; C16 diacid = O=C(O)CCCCCCCCCCCCCCC(=O)*; γGlu = O=C(O)[C@H](CCC(=O)[*:2])N[*:1]; AEEA = NCCOCCOCC(=O)O; Aib = CC(C)(N)C(=O)O

Columns and labels:
[1] = system: Male Sprague Dawley (SD) rats; test: Efficacy testing on appetite: acute food intake in ad libitum fed normal weight rats; format: in vivo, rat; details: for Food intake (relative to vehicle) Day 1: day 1 [0-24 hours]; for Food intake (relative to vehicle) Day 2: day 2 [24-48 hours]; for Food intake (relative to vehicle) Day 3: day 3 [48-72 hours]
Text: Male Sprague Dawley (SD) rats from Taconic, Denmark were used for the acute food intake experiments, wherein the principles of laboratory animal care were followed.
The rats arrived at least 10-14 days before the start of the experiment to allow acclimatization to experimental settings. During this period, the animals were handled (fixation by restrain in neck skin) at least 2 times. Immediately upon arrival, rats were changed to a reversed light cycle (dark from 11 am-11 pm) and were transferred to an automated food intake measuring system (HM2 system, MBRose; Faaborg, Denmark). […] To enable recording of individual food intake, rats were ID chipped. Three rats were housed in each cage. During the acclimatization period, in which the rats get used to the new light cycle and diet (LF 10% (D12450B), from Research Diets Inc.), the animals had free access to food and water. Since rats are normally active and consume most of their daily calories during the dark period, rats were dosed in the morning right before lights were turned off. Such a set-up results in the lowest data variation and highest test sensitivity. […] In each cage there were animals from three different treatment groups (to eliminate potential cage effects (e.g. cage malfunction) on primary readout: food intake). The rats were dosed once subcutaneously (s.c.) with the peptide of interest according to body weight (10 or 30 nmol/kg) in vehicle (0.5 ml/kg) using a NovoPen® (Novo Nordisk, Bagsvæed, Denmark).
The compounds of the invention were formulated (20 or 60 nmol/ml) in the following vehicle: 8 mM phosphate; 250 mM glycerol; 0.007% polysorbate 20, pH 7.4.
After dosing, the rats were returned to their home cages, where they continued to have ad libitum access to chow and water. The food consumption was recorded individually and continuously by the HM2 system from 0-72 h after test compound administration. Data obtained by the HM-2 system were stored in a HMBase SQL database (Firebird® relational database management system) and were processed by HM2Lab software (MBRose; Faaborg, Denmark) installed in an embedded computer. The feeding system is a highly sensitive system with a load resolution of 0.001 g.

[2] = target: T1, human GLP-1 receptor (hGLP-1R) (Homo sapiens, UniProt P43220); test: GLP-1 receptor assay, method A (CRE-luciferase reporter, BHK cells); format: cell-based
T1 construct: expressed in transfected cells
Outline: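 Run in parallel with no HSA and with 1% (w/v) HSA to gauge albumin effects; assay buffer also held 1% ovalbumin, 10 mM HEPES and 0.1% Pluronic F-68. Thawed hGLP-1R BHK CRE-Luc cells incubated 3 h at 37 °C, then luciferase luminescence measured (steadylite Plus).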

[3] = hGLP-1R Potency, 1% HSA, EC50, method A, in the presence of 1% HSA
[4] = method A, absence of HSA, read-out: hGLP-1R Potency, no HSA, EC50

T1 sequence (P43220 24-463): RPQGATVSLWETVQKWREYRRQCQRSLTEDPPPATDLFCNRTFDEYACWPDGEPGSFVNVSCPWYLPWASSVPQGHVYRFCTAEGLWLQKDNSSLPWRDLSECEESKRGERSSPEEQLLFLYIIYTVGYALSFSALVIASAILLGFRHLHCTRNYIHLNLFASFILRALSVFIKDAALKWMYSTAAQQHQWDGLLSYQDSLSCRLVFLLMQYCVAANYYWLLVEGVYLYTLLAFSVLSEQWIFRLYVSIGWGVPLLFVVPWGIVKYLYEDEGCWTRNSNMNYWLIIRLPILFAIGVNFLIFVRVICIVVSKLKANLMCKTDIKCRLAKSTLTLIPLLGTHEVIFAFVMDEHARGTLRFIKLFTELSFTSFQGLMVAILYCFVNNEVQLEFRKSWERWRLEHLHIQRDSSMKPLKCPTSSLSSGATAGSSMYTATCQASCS

Row | Substance | EC50 [2, 3] | EC50 [2, 4] | Food intake (relative to vehicle) Day 1 ([1]; single dose 10 nmol/kg) | Food intake (relative to vehicle) Day 2 ([1]; single dose 10 nmol/kg) | Food intake (relative to vehicle) Day 3 ([1]; single dose 10 nmol/kg) | Food intake (relative to vehicle) Day 1 ([1]; single dose 30 nmol/kg) | Food intake (relative to vehicle) Day 2 ([1]; single dose 30 nmol/kg) | Food intake (relative to vehicle) Day 3 ([1]; single dose 30 nmol/kg) | EC50 ([2]; hGLP-1R Potency, no HSA, EC50, method A, absence of HSA)
1 | Y[Aib]EGTFTSDYSILLEEQAAREFIEWLLAGGPSSGALQAPGQAPLASHLSTAQTQRLSAELHK([AEEA-AEEA-γGlu-C20 diacid])LATLPRTETGSGSP-NH2 [Compound 99] | 0.0362 nM | 0.0167 nM | −69% | −84% | −46% | – | – | – | –
2 | H[Aib]HGTFTSDYSILLEEQAAREFIEWLLAGGPSK([AEEA-AEEA-γGlu-C18 diacid])GAPPPSGGGEASELSTAALGRLSAELHELATLPRTETGSGSP-NH2 [Compound 15] | 0.103 nM | 0.00141 nM | −30% | −42% | −9% | – | – | – | –
3 | Y[Aib]EGTFTSDYSILLEEQAAREFIEWLLAGGPSSGAGQAPGQAPGASHLSTAALGRLSAELHK([AEEA-AEEA-γGlu-C18 diacid])LATLPRTETGSGSP-NH2 [Compound 53] | 0.0792 nM | 0.0233 nM | −75% | −90% | −33% | – | – | – | –
4 | Y[Aib]EGTFTSDYSILLEEQAAREFIEWLLAGGPSK([AEEA-AEEA-γGlu-C16 diacid])GEASELSTAALGRLSAELHELATLPRTETGSGSP-NH2 [Compound 11] | 0.204 nM | 0.0104 nM | – | – | – | −46% | −45% | −27% | –
5 | H[Aib]HGTFTSDYSILLEEQAAREFIEWLLAGGPSK([AEEA-AEEA-γGlu-C16 diacid])GAPPPSGGGEASHLSTAQTARLSAELHRLADLPRTETGSGSP-NH2 [Compound 61] | 0.0147 nM | – | −86% | −92% | −34% | – | – | – | 0.00279 nM
6 | Y[Aib]EGTFTSDYSILLEEQAAREFIEWLLAGGPSSGAPPPSGGGEASHLSTAQTQRLSAK([AEEA-AEEA-γGlu-C18 diacid])LHRLATLPRTETGSGSP-NH2 [Compound 109] | 0.0947 nM | 0.0689 nM | −85% | −34% | −28% | – | – | – | –
7 | H[Aib]HGTFTSDYSILLEEQAAREFIEWLLAGGPSRGEASHLSTAQTQRLSAELHK([AEEA-AEEA-γGlu-C18 diacid])LATLPRTETGSGSP-NH2 [Compound 69] | 0.0204 nM | 0.00345 nM | −81% | −68% | −6% | – | – | – | –
8 | Y[Aib]EGTFTSDYSILLEEQAAREFIEWLLAGGPSSGAPPPSGGGEASHLSTAQTQRLSAK([AEEA-AEEA-γGlu-C20 diacid])LHRLATLPRTETGSGSP-NH2 [Compound 110] | 0.169 nM | 0.107 nM | −75% | −54% | −23% | – | – | – | –

Further substances by falling EC50 [2, 3], results first:

Row | EC50 [2, 3] | EC50 [2, 4] | Substance | Food intake (relative to vehicle) Day 1 ([1]; single dose 10 nmol/kg) | Food intake (relative to vehicle) Day 2 ([1]; single dose 10 nmol/kg) | Food intake (relative to vehicle) Day 3 ([1]; single dose 10 nmol/kg) | Food intake (relative to vehicle) Day 1 ([1]; single dose 30 nmol/kg) | Food intake (relative to vehicle) Day 2 ([1]; single dose 30 nmol/kg) | Food intake (relative to vehicle) Day 3 ([1]; single dose 30 nmol/kg) | EC50 ([2]; hGLP-1R Potency, no HSA, EC50, method A, absence of HSA)
9 | 0.238 nM | 0.00274 nM | H[Aib]HGTFTSDYSILLEEQAAREFIEWLLAGGPSK([AEEA-AEEA-γGlu-C20 diacid])GAPPPSGGGEASELSTAALGRLSAELHELATLPRTETGSGSP-NH2 [Compound 16] | −17% | −11% | −10% | −39% | −22% | −17% | –
10 | 0.168 nM | 0.0387 nM | Y[Aib]EGTFTSDYSILLEEQAAREFIEWLLAGGPSSGEASHLSTAQTQRLSAK([AEEA-AEEA-γGlu-C18 diacid])LHRLATLPRTETGSGSP-NH2 [Compound 79] | −70% | −54% | −5% | – | – | – | –
11 | 0.0663 nM | 0.0162 nM | Y[Aib]EGTFTSDYSILLEEQAAREFIEWLLAGGPSSGEASHLSTAQTQRLSAELHK([AEEA-AEEA-γGlu-C18 diacid])LATLPRTETGSGSP-NH2 [Compound 50] | −54% | −60% | −21% | – | – | – | –
12 | 0.0584 nM | 0.0182 nM | Y[Aib]EGTFTSDYSILLEEQAAREFIEWLLAGGPSSGAGQAPGQAPGASHLSTAQTQRLSAELHRLK([AEEA-AEEA-γGlu-C18 diacid])TLPRTETGSGSP-NH2 [Compound 56] | −69% | −77% | −10% | – | – | – | –
13 | 0.0178 nM | 0.00403 nM | H[Aib]HGTFTSDYSILLEEQAAREFIEWLLAGGPSSGAGQAPGQAPGASHLSTAQTQRLSAK([AEEA-AEEA-γGlu-C18 diacid])LHRLATLPRTETGSGSP-NH2 [Compound 78] | −96% | −57% | −3% | – | – | – | –
14 | 0.0164 nM | 0.00411 nM | H[Aib]HGTFTSDYSILLEEQAAREFIEWLLAGGPSSGAGQAPGQAPLASHLSTAQTQRLSAELHK([AEEA-AEEA-γGlu-C18 diacid])LATLPRTETGSGSP-NH2 [Compound 93] | −94% | −61% | −25% | – | – | – | –
